These results are taken from ChEMBL document CHEMBL1156812, “Novel synthesis of the hexahydroimidazo[1,5b]isoquinoline scaffold: application to the synthesis of glucocorticoid receptor modulators” (J Med Chem, 2010).

Assay [1] has as its target T1, Glucocorticoid receptor (Homo sapiens, UniProt P04150).
T1 sequence (P04150 whole entry): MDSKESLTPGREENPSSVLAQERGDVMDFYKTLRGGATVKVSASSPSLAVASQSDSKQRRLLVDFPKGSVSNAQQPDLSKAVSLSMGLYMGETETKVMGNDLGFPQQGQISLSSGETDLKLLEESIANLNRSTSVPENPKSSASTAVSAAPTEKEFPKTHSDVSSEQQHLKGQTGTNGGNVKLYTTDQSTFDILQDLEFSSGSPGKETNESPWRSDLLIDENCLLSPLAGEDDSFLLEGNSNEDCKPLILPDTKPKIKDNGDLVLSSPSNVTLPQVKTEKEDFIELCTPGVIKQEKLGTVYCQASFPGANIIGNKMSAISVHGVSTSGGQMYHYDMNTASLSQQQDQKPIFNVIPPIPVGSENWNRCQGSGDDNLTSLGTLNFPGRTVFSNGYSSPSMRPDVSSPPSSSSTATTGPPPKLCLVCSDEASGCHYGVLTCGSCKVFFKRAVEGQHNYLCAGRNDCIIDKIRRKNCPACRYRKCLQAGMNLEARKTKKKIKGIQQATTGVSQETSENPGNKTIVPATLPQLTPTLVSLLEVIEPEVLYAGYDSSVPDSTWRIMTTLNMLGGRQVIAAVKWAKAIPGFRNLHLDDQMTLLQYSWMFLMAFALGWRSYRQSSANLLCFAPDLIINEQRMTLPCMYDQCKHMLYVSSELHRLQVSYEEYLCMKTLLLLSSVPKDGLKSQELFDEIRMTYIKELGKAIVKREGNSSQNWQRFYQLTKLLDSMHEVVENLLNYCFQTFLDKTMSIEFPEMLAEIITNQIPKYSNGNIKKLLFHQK
The experiment in a line: Displacement of GS-red from human glucocorticoid receptor by fluorescent polarization assay.

Assay [2] concerns the target T2, Androgen receptor (Homo sapiens, UniProt P10275).
T2 sequence (P10275 whole entry): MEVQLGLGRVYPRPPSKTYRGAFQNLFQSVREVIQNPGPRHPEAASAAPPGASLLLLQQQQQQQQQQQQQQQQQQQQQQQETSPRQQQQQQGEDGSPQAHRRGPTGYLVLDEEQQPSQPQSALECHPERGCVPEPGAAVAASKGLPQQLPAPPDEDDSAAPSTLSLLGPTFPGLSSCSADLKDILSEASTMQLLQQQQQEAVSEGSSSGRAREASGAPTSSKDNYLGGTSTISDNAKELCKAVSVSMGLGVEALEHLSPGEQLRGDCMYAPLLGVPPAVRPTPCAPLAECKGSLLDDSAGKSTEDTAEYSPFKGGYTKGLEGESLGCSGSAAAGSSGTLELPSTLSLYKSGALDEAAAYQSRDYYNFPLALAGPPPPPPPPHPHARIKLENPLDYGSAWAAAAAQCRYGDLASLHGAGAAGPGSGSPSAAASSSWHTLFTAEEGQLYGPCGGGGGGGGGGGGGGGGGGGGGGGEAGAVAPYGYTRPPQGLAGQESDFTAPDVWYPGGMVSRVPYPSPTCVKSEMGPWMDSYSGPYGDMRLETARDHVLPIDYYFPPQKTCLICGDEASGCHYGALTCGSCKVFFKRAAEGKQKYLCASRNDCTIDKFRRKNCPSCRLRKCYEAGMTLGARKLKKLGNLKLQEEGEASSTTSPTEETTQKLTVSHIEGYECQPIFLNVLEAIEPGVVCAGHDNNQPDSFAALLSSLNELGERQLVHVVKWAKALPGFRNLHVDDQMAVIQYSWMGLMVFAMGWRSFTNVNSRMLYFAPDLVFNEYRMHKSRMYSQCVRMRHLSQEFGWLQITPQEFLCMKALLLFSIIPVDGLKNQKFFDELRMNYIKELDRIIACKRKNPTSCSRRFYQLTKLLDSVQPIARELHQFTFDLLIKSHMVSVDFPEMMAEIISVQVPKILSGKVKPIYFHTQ
Kind of assay: Binding affinity to androgen receptor.

Assay [3] concerns the target T1, Glucocorticoid receptor. The experiment in a line: Transrepression activity at glucocorticoid receptor expressed in human A549 cells assessed as inhibition of PMA-induced AP1 activity after 6 hrs by luciferase reporter gene assay. The assay is classed as cell-based.
Assay [4] deals with T1, Glucocorticoid receptor. Kind of assay: Transrepression activity at glucocorticoid receptor expressed in human A549 cells assessed as inhibition of IL-1-beta-induced NF-kappaB dependent E-selection promoter activation after 6 hrs by luciferase reporter gene based ELAM assay. It counts as cell-based. In general terms: A reporter such as luciferase makes a cellular process visible.

Assay [5] has as its target T1, Glucocorticoid receptor. The experiment in a line: Transactivation of GAL-4 tagged glucocorticoid receptor ligand binding domain expressed in human HeLa cells assessed as NP1 activation by luciferase reporter gene assay. It counts as cell-based.

Structures are written as SMILES.

As a reminder, the Ki is a measure of affinity in units of concentration, obtained from inhibition or displacement. A low value points to higher affinity. As a reminder, the IC50 is the point on the concentration scale where inhibition reaches its midpoint. Regarding `C[C@]12Cc3cnn(-c4ccc(F)cc4)c3C=C1CCC[C@@H]2[C@](C)(O)c1ccsc1`, the affinity in assay [1] corresponds to a Ki of 0.8 nM. Further, the 50% inhibitory concentration (IC50) in assay [2] was more than 4000 nM.

The compound `C[C@]12Cc3cnn(-c4ccc(F)cc4)c3C=C1CCC[C@@H]2[C@](C)(O)c1ccc(F)cc1` showed a Ki in assay [1] of 2.5 nM. In assay [2], this compound returned an IC50 of more than 4000 nM.

The term EC50 denotes the concentration at which the effect is half-maximal. `CCCC[C@@](C)(O)[C@H]1CCCC2=Cc3c(-c4ccc(F)cc4)ncn3C[C@@]21C`: the EC50 in assay [3] was found to be 34 nM; in assay [4] it was 130 nM; in assay [5], 1130 nM. Besides, the Ki in assay [1] was 7.9 nM. The compound further showed an IC50 in assay [2] of more than 4000 nM.

On to `Cc1cccc([C@@](C)(O)[C@H]2CCCC3=Cc4c(-c5ccc(F)cc5)ncn4C[C@@]32C)c1`, for which the EC50 came to 9.5 nM in assay [3], 99 nM in assay [4] and 1130 nM in assay [5]. In assay [1], affinity was put at a Ki of 2.5 nM. The IC50 in assay [2] is more than 4000 nM.

As to `C[C@]12Cn3cnc(-c4ccc(F)cc4)c3C=C1CCC[C@@H]2[C@](C)(O)c1cccc(C#N)c1`, the EC50 in assay [3] is 18 nM; in assay [4], 31 nM; in assay [5] it was more than 10000 nM. Moreover, the Ki in assay [1] stood at 1 nM. The same compound came in with an IC50 in assay [2] of more than 4000 nM.

In the case of `CO[C@](C)(c1cccs1)[C@H]1CCCC2=Cc3c(-c4ccc(F)cc4)ncn3C[C@@]21C`, the EC50 in assay [3] and in assay [4] was more than 5000 nM in each case. In addition, the Ki in assay [1] was 33 nM. Further, in assay [2], the IC50 was more than 4000 nM.

In assay [2], `C[C@]12Cn3cnc(-c4ccc(F)cc4)c3C=C1CCC[C@@H]2[C@](C)(O)c1ccncc1` had an IC50 of more than 4000 nM.

`CC(C)C[C@@](C)(O)[C@H]1CCCC2=Cc3c(-c4ccc(F)cc4)ncn3C[C@@]21C`: the EC50 in assay [3] came to 132 nM; in assay [4], 133 nM; in assay [5], 876 nM. In assay [1], the Ki was determined as 9 nM. The compound also returned an IC50 in assay [2] of more than 4000 nM.

With `C[C@]12Cn3cnc(-c4ccc(F)cc4)c3C=C1CCC[C@@H]2[C@](C)(O)CCc1ccccc1`, in assay [2], the half-maximal inhibitory concentration (IC50) was more than 4000 nM.

Regarding `C[C@]12Cn3cnc(-c4ccc(F)cc4)c3C=C1CCC[C@@H]2[C@](C)(O)c1ccsc1`, the EC50 was 5 nM in assay [3], 37 nM in assay [4] and more than 10000 nM in assay [5]. In assay [1], this compound yielded a Ki of 1 nM. In assay [2], this compound had an IC50 of more than 4000 nM.

Consider `C[C@]12Cn3cnc(-c4ccc(F)cc4)c3C=C1CCC[C@@H]2[C@](C)(O)C(F)(F)F`, for which the figures for the EC50 in assay [3] and in assay [5] were 31 nM and more than 10000 nM, respectively. Besides, the Ki in assay [1] was found to be 5.2 nM. For the same compound, the IC50 in assay [2] is more than 4000 nM.

`C[C@]12Cn3cnc(-c4ccc(F)cc4)c3C=C1CCC[C@@H]2[C@](C)(O)Cc1ccc(F)cc1`: the EC50 in assay [3] was 227 nM; in assay [4], 121 nM; in assay [5], 760 nM. Moreover, the affinity in assay [1] corresponds to a Ki of 11 nM. In addition, the half-maximal inhibitory concentration (IC50) in assay [2] was more than 4000 nM.

On to `C[C@]12Cn3cnc(-c4ccc(F)cc4)c3C=C1CCC[C@@H]2[C@](C)(O)c1nccs1`, for which the EC50 was determined as 110 nM in assay [3], 92 nM in assay [4] and 572 nM in assay [5]. In assay [1], this compound gave a Ki of 3 nM. The compound also came in with an IC50 in assay [2] of more than 4000 nM.

Consider `C[C@]12Cn3cnc(-c4ccc(F)cc4)c3C=C1CCC[C@@H]2[C@](C)(O)c1ccccc1`, for which the figures for the EC50 in assay [3], in assay [4] and in assay [5] were 16 nM, 61 nM and more than 5000 nM, respectively. This compound showed a Ki in assay [1] of 1 nM. The IC50 in assay [2] is more than 4000 nM.

Regarding `C[C@]12Cn3cnc(-c4ccc(F)cc4)c3C=C1CCC[C@@H]2[C@](C)(O)C1CCCCC1`, the EC50 was determined as 2 nM in assay [3], 33 nM in assay [4] and 470 nM in assay [5]. The inhibition constant (Ki) in assay [1] is 3.1 nM. The IC50 in assay [2] is more than 4000 nM.

Turning to `Cc1ccc([C@@](C)(O)[C@H]2CCCC3=Cc4c(-c5ccc(F)cc5)ncn4C[C@@]32C)s1`, the EC50 was determined as 28 nM in assay [3], 18 nM in assay [4] and 272 nM in assay [5]. In addition, affinity in assay [1] was put at a Ki of 1.5 nM. The IC50 in assay [2] is more than 4000 nM.

Regarding `C[C@]12Cn3cnc(-c4ccc(F)cc4)c3C=C1CCC[C@@H]2[C@](C)(O)C1CCOCC1`, the IC50 in assay [2] is more than 4000 nM.

For `C[C@]12Cc3cnn(-c4ccc(F)cc4)c3C=C1CCCC2[C@@H](O)c1csc2ccccc12` (stereo not given in full), the EC50 in assay [3] was 1.8 nM. The same compound had a Ki in assay [1] of 1.8 nM.

As to `C[C@]12Cn3cnc(-c4ccc(F)cc4)c3C=C1CCC[C@@H]2[C@](C)(O)c1ccc(C#N)cc1`, the results for the EC50 in assay [3], in assay [4] and in assay [5] were 59 nM, 105 nM and more than 10000 nM, respectively. For the same compound, affinity in assay [1] was put at a Ki of 2.5 nM. Also, the IC50 in assay [2] was more than 4000 nM.

On to `Cc1ccccc1[C@@](C)(O)[C@H]1CCCC2=Cc3c(-c4ccc(F)cc4)ncn3C[C@@]21C`, for which the EC50 in assay [3] was found to be 25 nM; in assay [4], 31 nM; in assay [5], 920 nM. This compound registered a Ki in assay [1] of 2 nM. The IC50 in assay [2] was more than 4000 nM.

Take `C[C@]12Cn3cnc(-c4ccc(F)cc4)c3C=C1CCC[C@@H]2[C@](C)(O)c1ccc(F)cc1`: the EC50 in assay [3] stood at 20 nM; in assay [4], 44 nM. In addition, the affinity in assay [1], expressed as Ki, was 2 nM. The same compound showed an IC50 in assay [2] of more than 4000 nM.

The compound `C[C@]12Cn3cnc(-c4ccc(F)cc4)c3C=C1CCC[C@@H]2[C@](C)(O)c1cccnc1` came in with an IC50 in assay [2] of more than 4000 nM.

Take `C=CC[C@H](O)C1CCCC2=Cc3c(cnn3-c3ccc(F)cc3)C[C@@]21C` (stereo not given in full): the EC50 in assay [3] was found to be 9.3 nM. Besides, the affinity in assay [1], expressed as Ki, was 3.9 nM. The compound also registered an IC50 in assay [2] of more than 4000 nM.

`C[C@]12Cn3cnc(-c4ccc(F)cc4)c3C=C1CCC[C@@H]2[C@](C)(O)c1ccccn1`: the IC50 in assay [2] is more than 4000 nM.

With `C[C@]12Cn3cnc(-c4ccc(F)cc4)c3C=C1CCC[C@@H]2[C@](C)(O)C1CC1`, the results for the EC50 in assay [3], in assay [4] and in assay [5] were 37 nM, 49 nM and more than 5000 nM, respectively. In assay [1], this compound displayed a Ki of 2.6 nM. Besides, the IC50 in assay [2] was more than 4000 nM.

In the case of `C=CCC(O)C1CCCC2=Cc3c(-c4ccc(F)cc4)ncn3CC21C` (single isomer, unassigned; diastereomer 1), the EC50 in assay [3] was more than 2500 nM; in assay [4], more than 5000 nM. The compound further had a Ki in assay [1] of 8 nM.

Regarding `C=CCC(O)C1CCCC2=Cc3c(-c4ccc(F)cc4)ncn3CC21C` (single isomer, unassigned; diastereomer 2), the EC50 in assay [3] (a549) was more than 2500 nM; in assay [4] (a549) it was more than 5000 nM. This compound also had a Ki in assay [1] of 9 nM.

In the case of `C[C@]12Cn3cnc(-c4ccc(F)cc4)c3C=C1CCC[C@@H]2[C@H](O)c1ccc(F)cc1` (stereo in doubt; 18), the EC50 in assay [3] and in assay [4] was more than 5000 nM in each case. For the same compound, in assay [1], the Ki came to 25 nM.
